Measurements reported in the METLIN SMRT retention time set (Domingo-Almenara et al. 2019).

Assay: gradient 5% acetonitrile 3 min, to 50% in 2 min, to 85% in 15 min, held 3 min, 100 µL/min
Details: column: Zorbax Extend-C18 2.1 x 50 mm; eluents: water / acetonitrile, 0.1% formic acid
Outline: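 Using water and acetonitrile that each contained 0.1% formic acid, mixtures of ~100 pure standards were separated at 100 μL/min on a Zorbax Extend-C18 column (2.1 × 50 mm, 1.8 μm). The HPLC fed a quadrupole time-of-flight mass spectrometer working in positive and negative ionization mode, with dead and dwell volumes of 40 μL and 900 μL. Data were acquired over 3 months. Retention time was read from computationally picked adduct peaks after manual inspection of each.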

| SMILES | RP-LC retention time |
| --- | --- |
| CCc1nc2cc(N3CCCC(C(=O)NCc4ccco4)C3)cnc2nc1CC (stereo not drawn) | 673 s |
| Cc1cc(N2CCN(C)CC2)nc2ccc(NC(=O)Nc3ccccc3Br)cc12 | 609 s |
| Cc1nnc2n1CCN(C(=O)c1cc(-c3ccccc3)n[nH]1)C2 | 608 s |
| COc1cccc(NC(=O)N2CCCC(C)(C(=O)NCc3ccccc3C)C2)c1 (stereo not drawn) | 890 s |
| CCn1ccc(C(=O)Nc2ccccc2C#N)n1 | 744 s |
| Cc1ccnc(N2CCC(C(=O)Nc3ccc(Br)cc3F)CC2)n1 | 811 s |
| O=C(CCc1ccccc1)NC1CCS(=O)(=O)C1 (stereo not drawn) | 619 s |
| Cc1noc(-c2ccnc(-n3cnc(C(=O)NC4CCCCCC4)c3)c2)n1 | 915 s |
| COc1ccc(CN2C=C(C(=O)OCc3noc(C4CCCCC4)n3)C(C)=NS2(=O)=O)cc1 | 1150 s |
| CCc1ccc(C2=C(C)C(N3CCCN(C(=O)NCC(C)C)CC3)=NS2(=O)=O)cc1 | 842 s |
| COc1ccc(NC(=O)C2CCCN(c3nnc4ccccn34)C2)cc1C(F)(F)F (stereo not drawn) | 704 s |
| COc1cccc(CC(=O)NCC(=O)Nc2nc3ccccc3[nH]2)c1 | 618 s |
| CCCCn1nc2ccc(S(=O)(=O)N3CCSCC3)cn2c1=O | 847 s |
| O=C(COC(=O)c1cccc([N+](=O)[O-])c1)c1ccc(NC(=O)c2ccccc2)cc1 | 921 s |
| C[C@@H]1COC(Nc2ccc3ncnc(Nc4ccc(OCc5nccs5)c(Cl)c4)c3c2)=N1 | 634 s |
| COc1cccc(OC)c1CN1CC[C@@H]2CN(S(C)(=O)=O)[C@@H]2C1 | 594 s |
| COc1cc(OC)cc(N2C(=O)CC(c3ccc(OC)c(OC)c3)CC2=O)c1 | 833 s |
| CSc1ccc(-c2nc3cccc(C)n3c2Nc2ccc(C)cc2)cc1 | 824 s |
| CCN(C(=O)c1ccccc1OC)c1nc(-c2ccccc2)cs1 | 1210 s |
| O=C(NC1CC1)c1nnc(-c2ccc(S(=O)(=O)N3CCCCC3)cc2)o1 | 804 s |
| CCOc1ccc(CCNC(=O)c2cc3sc(Cl)cc3n2CC)cc1OCC | 1200 s |
| O=C1c2ccccc2C(=O)C1c1ccccn1 | 749 s |
| O=C(NC1CC1)[C@@H]1C[C@H](Oc2ccccc2)CN1C(=O)c1ccco1 | 700 s |
| Cc1cccc(CNC(=O)C2CCN(S(=O)(=O)c3cc(C(=O)N4CCCC4)n(C)c3)CC2)c1 | 747 s |
| COc1ccccc1-c1noc(C2CCCN2C(=O)c2cccs2)n1 (stereo not drawn) | 849 s |
| CCCCOc1ccc(C(=O)N2CCNC(=O)C2CC(=O)OC2CCCCC2)cc1 (stereo not drawn) | 1000 s |

| SMILES | RP-LC retention time |
| --- | --- |
| Cc1ccccc1NC(=O)C(=O)Nc1ccccc1C | 1080 s |
| O=C(NCC1(CO)CC1)c1ccc2nsnc2c1 | 602 s |
| CCc1ccc(NC(=O)N2CCN(c3cnn4c(C)nnc4c3)CC2)cc1 | 649 s |
| COc1ccc(NC(=O)NCC2CCOCC2)c(C)c1 | 657 s |
| CCOC(=O)c1ccc(Nc2nc(N3CCCC3)nc(N3CCCC3)n2)cc1 | 772 s |
| COc1ccc(-c2noc(Cc3nnc(-c4ccc(F)cc4)o3)n2)cc1OC | 889 s |
| Cn1cnc2cc(OC(=O)c3c(F)cccc3F)ccc21 | 590 s |
| CCOC(=O)c1[nH]c(C)c(CCC(=O)N2CCCC(C(=O)NCc3cc(OC)ccc3OC)C2)c1C (stereo not drawn) | 799 s |
| O=C(c1cccc(Br)c1)N1CCN(c2cc(-c3cccs3)[nH]n2)CC1 | 837 s |
| Cn1cc(S(=O)(=O)N2CCC(C(=O)N3CCc4ccccc43)CC2)cc1C(=O)N1CCCC1 | 805 s |
| CCN(CC)S(=O)(=O)c1ccc2c(c1)CC(C(=O)N1CCN(C3CCCCC3)CC1)N2C(C)=O (stereo not drawn) | 666 s |
| Cc1ccc(-c2noc(-c3ccc(=O)n(Cc4cc(C)ccc4C)c3)n2)cc1 | 1260 s |
| COc1ccc(-c2cc(N3CCN(C(=O)Nc4cc(OC)cc(OC)c4)CC3)ncn2)cc1 | 672 s |
| COc1cccc(-c2noc(Cn3cnc4c(nnn4-c4ccccc4OC)c3=O)n2)c1 | 914 s |
| Nc1cc(C(F)(F)F)c(-c2cc(N3CCOCC3)nc(N3CCOCC3)n2)cn1 | 650 s |
| CCSc1nnc(-c2nn(C)c3c2CN(S(=O)(=O)c2cccc(F)c2)CC3)n1CC | 922 s |
| Cc1ccc(C)c(Cn2nc3ccc(S(=O)(=O)N4CCc5ccccc5C4)cn3c2=O)c1 | 1100 s |
| CCOc1ccccc1C(=O)Nc1ccc2c(c1)N(CCOC)CCC2 | 1060 s |
| COCc1nc2cccnc2n1C1CCN(C(=O)Nc2ccc(OC)c(OC)c2)CC1 | 638 s |
| Nc1cc(C2CCN(C(=O)Nc3ccccc3Br)CC2)no1 | 706 s |
| COc1nccnc1N1CCC(N(C)C(=O)Cc2c(C)noc2C)C1 (stereo not drawn) | 642 s |
| COc1ccc(-c2ncc3c(=O)n(CC(=O)N4CCCC4)c(=O)n(C)c3n2)cc1 | 815 s |
| Fc1ccc(Nc2ncnc3nc[nH]c23)cc1 | 582 s |
| Cc1noc2ncnc(N3CCCC(C(=O)N4CCN(c5ccc(F)cc5)CC4)C3)c12 (stereo not drawn) | 846 s |
| O=C(NCc1ccco1)c1ccc(NC(=O)C2CCC2)cc1N1CCOCC1 | 750 s |

Continued, values first:

| RP-LC retention time | SMILES |
| --- | --- |
| 916 s | Cc1cccc(NC(=O)CN2C(=O)CCCc3cc(S(=O)(=O)N4CCCC4)ccc32)c1C |
| 771 s | O=C(CN1C(=O)NC(c2ccc(Cl)cc2)C2=C1COC2=O)NCc1ccc(F)cc1 (stereo not drawn) |
| 827 s | Cc1cc(C)cc(N2C(=O)CN(S(C)(=O)=O)CC2(C)C(=O)NCc2ccc(F)cc2)c1 (stereo not drawn) |
| 671 s | CCOc1cc(C2NCCc3c2[nH]c2ccc(Cl)cc32)ccc1O (stereo not drawn) |
| 602 s | CCN1CCN(c2cc(C)c3cc(NC(=O)CSc4ccccc4)ccc3n2)CC1 |
| 894 s | Cc1ccc(NC(=O)CN2C(=O)CC(C)S(=O)(=O)c3ccccc32)cc1Cl (stereo not drawn) |
| 754 s | CCn1cc(S(=O)(=O)CC(=O)Nc2ccc3c(c2)OCO3)c2ccccc21 |
| 699 s | Cc1nc(N(C)C(=O)Cc2ccc(-c3ccccn3)cc2)sc1S(N)(=O)=O |
| 834 s | CCc1ccc(NC(=O)C2CCN(S(=O)(=O)c3ccc4c(c3)CCCC(=O)N4)CC2)cc1 |
| 717 s | Cc1ccc(CNC(=O)C2(C)CCN(C(=O)Nc3cccc(Cl)c3C)CC2)cc1 |
| 923 s | CC1Cc2ccccc2N1C(=O)CCn1c(=O)sc2ccccc21 (stereo not drawn) |
| 735 s | CC(=O)N1CCc2cc(N3CC(C(=O)Nc4ccc(Cl)cc4C)CC3=O)ccc21 (stereo not drawn) |
| 1160 s | CCc1ccc(-c2noc(CN3C(=O)C(C)Oc4ccccc43)n2)cc1 (stereo not drawn) |
| 604 s | COc1ccc(-c2nc(NCCN(Cc3ccco3)C3CCCC3)c3ccccc3n2)cc1 |
| 723 s | Cc1nnc2c(=O)n(CC(=O)NCc3ccc(F)c(Cl)c3)c3cccnc3n12 |
| 746 s | O=C(Cn1c(=O)oc2ccccc21)NCCc1csc2nc(-c3ccccc3F)nn12 |
| 997 s | COc1cccc(NC(=O)c2cn(CC3CCCO3)cc3c(=O)n(-c4ccccc4)nc2-3)c1 (stereo not drawn) |
| 632 s | Cn1c(=O)n(CC(=O)O)c(=O)c2c1nc1n2CCCN1c1ccc(F)cc1 |
| 1080 s | CCOc1ccc(-c2nc(CNC(=O)Nc3ccccc3OCC)c(C)o2)cc1 |

| RP-LC retention time | SMILES |
| --- | --- |
| 810 s | COC(=O)c1cc(OCC(=O)Nc2ccc(F)cc2)c2cc(OC)ccc2n1 |
| 672 s | Cc1c(NC(=O)C2CCN(S(=O)(=O)Cc3ccccc3)CC2)c(=O)n(-c2ccccc2)n1C |
| 772 s | CCn1c(C)c(CN2CCC(C(=O)NCc3cccc(Cl)c3)CC2)c2ccccc21 |
| 695 s | COc1ccc([N+](=O)[O-])cc1NC(=O)Cc1ccc(S(C)(=O)=O)cc1 |
| 703 s | Cc1oc(-c2[nH]ncc2C(=O)N(C)C)cc1S(=O)(=O)Nc1ccc(Cl)cc1 |
| 753 s | CCc1cccc(NC(=O)Cn2cc(C(=O)N3CCCC3)c(=O)c3ccc(C)nc32)c1 |
| 657 s | Fc1ccc(OCc2nc(-c3ccc4c(c3)ncn4CCN3CCCC3)no2)cc1 |
| 580 s | COc1cccc(CNC(=O)Nc2ccc3nc(N4CCN(C)CC4)cc(C)c3c2)c1 |
| 656 s | Cc1ccc(CNC(=O)C2(CCO)CCN(Cc3ccccc3)C2)o1 (stereo not drawn) |
| 920 s | O=C(c1ccc(F)c(F)c1)N1CCC2(CC1)N=C(c1ccc(Cl)cc1)NO2 |
| 1130 s | Cc1oc2ccn(Cc3cccc(F)c3)c(=O)c2c1C(=O)NCc1cc(F)cc(F)c1 |
| 906 s | O=C([C@@H]1C[C@H](F)CN1S(=O)(=O)c1cc(F)ccc1F)N1CCc2ccccc2C1 |
| 1030 s | CN(Cc1ccccc1)C(=O)CSc1nnc(-c2ccc(Cl)cc2)o1 |
| 784 s | COc1ccccc1N1CCN(CCn2c(=O)c3c(c4ccccc4n3C)n(C)c2=O)CC1 |
| 840 s | CCCn1cc(C(=O)N2CCc3ccccc32)c2nn(-c3ccccc3)c(=O)c-2c1 |
| 1110 s | Cc1nc(-c2cc3ccccc3nc2N2CCN(c3ccc(F)cc3)CC2)no1 |
| 718 s | Cc1ccc2nc(C(=O)NCc3ccc(Cl)cc3)cn2c1 |
| 796 s | CC(=O)N(Cc1nn(C)c2c1CN(S(=O)(=O)c1cccc(F)c1)CC2)c1ccccc1 |
